Test results as given in patent US20040102511A1, “Substituted pyrrole derivatives” (priority 2002, published 2004).
Where a name gives a salt, the structure may show the parent alone.

Biological target: T1, HMG-CoA reductase (Rattus norvegicus, UniProt P51639)
T1 construct: were preincubated with liver microsomes at 37° C. for 30 minutes; from tissue
T1 sequence (P51639 1-887): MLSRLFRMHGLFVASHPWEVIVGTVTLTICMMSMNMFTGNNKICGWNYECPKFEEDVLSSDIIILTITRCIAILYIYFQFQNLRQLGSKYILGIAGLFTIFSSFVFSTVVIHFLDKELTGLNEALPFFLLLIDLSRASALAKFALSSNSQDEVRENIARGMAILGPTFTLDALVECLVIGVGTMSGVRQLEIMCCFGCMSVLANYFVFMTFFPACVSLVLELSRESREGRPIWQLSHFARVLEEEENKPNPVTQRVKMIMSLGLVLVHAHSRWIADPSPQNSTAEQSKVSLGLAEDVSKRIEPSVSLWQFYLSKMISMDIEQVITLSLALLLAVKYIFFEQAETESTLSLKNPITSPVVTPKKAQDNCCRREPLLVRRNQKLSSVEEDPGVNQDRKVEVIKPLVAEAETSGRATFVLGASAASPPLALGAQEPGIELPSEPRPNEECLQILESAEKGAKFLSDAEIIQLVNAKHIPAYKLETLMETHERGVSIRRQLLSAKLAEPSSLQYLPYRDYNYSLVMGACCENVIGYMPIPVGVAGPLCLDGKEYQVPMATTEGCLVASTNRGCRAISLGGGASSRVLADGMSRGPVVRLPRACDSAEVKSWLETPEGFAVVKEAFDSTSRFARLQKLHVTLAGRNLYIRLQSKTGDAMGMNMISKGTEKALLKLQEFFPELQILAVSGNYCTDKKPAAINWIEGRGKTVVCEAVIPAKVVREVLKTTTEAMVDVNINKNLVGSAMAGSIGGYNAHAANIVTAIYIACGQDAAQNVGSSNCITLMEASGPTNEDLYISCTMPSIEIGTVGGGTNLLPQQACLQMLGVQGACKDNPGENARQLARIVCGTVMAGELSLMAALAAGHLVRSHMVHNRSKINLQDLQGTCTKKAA
Assay: in-vitro HMG-CoA reductase enzyme assay (liver microsomes, [14C] HMG-CoA)
Assay type: biochemical
Conditions: 2.5 μM [14C] HMG-CoA as substrate, 37° C. for 15 minutes; compounds preincubated with liver microsomes at 37° C. for 30 minutes
Description: HMG-CoA reductase is a rate-limiting enzyme in the cholesterol biosynthesis, catalyzing the following reaction.
[^14C] HMG-CoA+2NADPH+2H^+→[^14C] mevanolate+CoA+2NADP^+ microsomes,
HMG-CoA as a substrate. The reaction was carried out in the presence of 100 mM KH2PO4, 20 mM G-6-P, 2.5 mM NADPH, 10 mM EDTA, 5 mM DTT and […] G-6-P dehydrogenase, at 37° C. for 15 minutes and quantitating [^14C] mevalonate as an end product.

Compound	IC50
CC(C)c1c(C(=O)Nc2ccccc2F)c(-c2ccccc2)c(-c2ccc(F)cc2)n1CC[C@@H](O)C[C@@H](O)CC(=O)O [Compound No. 2, (3R,5R)-7-[2-(4-Fluorophenyl)-5-isopropyl-3-phenyl-4-[(2-fluorophenylamino)carbonyl]-pyrrol-1-yl]-3,5-dihydroxy-1-heptanoic acid calcium salt]	0.0177 nM
CC(C)c1c(C(=O)Nc2ccccc2)c(-c2ccccc2)c(-c2ccc(F)cc2F)n1CC[C@@H](O)C[C@@H](O)CC(=O)O [Compound No. 12, (3R,5R)-7-[2-(2,4-Difluorophenyl)-5-isopropyl-3-phenyl-4-[(phenylamino)carbonyl]-pyrrol-1-yl]-3,5-dihydroxy-1-heptanoic acid calcium salt]	0.0123 nM
CC(C)c1c(C(=O)Nc2ccccc2)c(-c2ccccc2)c(-c2ccc(F)c(F)c2)n1CC[C@@H](O)C[C@@H](O)CC(=O)O [Compound No. 13, (3R,5R)-7-[2-(3,4-Difluorophenyl)-5-isopropyl-3-phenyl-4-[(phenylamino)carbonyl]-pyrrol-1-yl]-3,5-dihydroxy-1-heptanoic acid calcium salt]	0.00625 nM
Cc1ccc(-c2c(C(=O)Nc3ccccc3)c(C(C)C)n(CC[C@@H](O)C[C@@H](O)CC(=O)O)c2-c2ccc(F)cc2)cc1 [Compound No. 17, (3R,5R)-7-[2-(4-Fluorophenyl)-5-isopropyl-3-(4-methylphenyl)-4-[(phenylamino)carbonyl]-pyrrol-1-yl]-3,5-dihydroxy-1-heptanoic acid calcium salt]	0.034 nM
CC(C)c1c(C(=O)Nc2ccccc2)c(-c2ccc(C(F)(F)F)cc2)c(-c2ccc(F)cc2)n1CC[C@@H](O)C[C@@H](O)CC(=O)O [Compound No. 18, (3R,5R)-7-[2-(4-Fluorophenyl)-5-isopropyl-3-(4-trifluoromethylphenyl)-4-[(phenylamino)carbonyl]-pyrrol-1-yl]-3,5-dihydroxy-1-heptanoic acid calcium salt]	0.0126 nM
O=C(O)C[C@H](O)C[C@H](O)CCn1c(-c2ccc(F)cc2)c(-c2ccccc2)c(C(=O)Nc2ccccc2)c1C1CC1 [Compound No. 19, (3R,5R)-7-[2-(4-Fluorophenyl)-5-cyclopropyl-3-phenyl-4-[(phenylamino)carbonyl]-pyrrol-1-yl]-3,5-dihydroxy-1-heptanoic acid calcium salt]	0.0124 nM
CC(C)c1nc(N(C)S(C)(=O)=O)nc(-c2ccc(F)cc2)c1/C=C/[C@@H](O)C[C@@H](O)CC(=O)O [Rosuvastatin, reference compound]	0.0385 nM
(3R,5R)-7-[2,3-Di-(4-fluorophenyl)-5-isopropyl-4-[(phenylamino) carbonyl]-pyrrol-1-yl]-3,5-dihydroxy-1-heptanoic acid calcium salt [Compound No. 16]	0.0345 nM
(3R,5R)-7-[2-(4-Fluorophenyl)-5-isopropyl-3-(2,4-difluorophenyl)-4-[(phenylamino)carbonyl]-1H-pyrrol-3,5-dihydroxy-1-heptanoic acid calcium salt [Compound No. 15]	0.0122 nM
(3R,5R)-7-[2-(4-Fluorophenyl)-5-isopropyl-3-phenyl-4-[(3-fluorophen ylamino)carbonyl]-pyrrol-1-yl]-3,5-dihydroxy 1-heptanoic acid calcium salt [Compound No. 3]	0.0239 nM
(3R,5R)-7-[2-(4-Fluorophenyl)-5-isopropyl-3-phenyl-4-[(4-fluorophenylamino)carbonyl]-pyrrol-1-yl]-3,5-dihydroxy-1-heptanoic acid calcium salt [Compound No. 4]	0.0098 nM
(3R,5R)-7-[2-(4-Fluorophenyl)-5-isopropyl-3-phenyl-4-[(pyridin-2-yl-amino)carbonyl]pyrrol-1-yl]-3,5-dihydroxy-1-heptanoic acid calcium salt [Compound No. 5]	0.0195 nM
